Several values for one entry are separate records, joined by “and”; a condition that tells them apart may be missing. Identical values can stand only once. Toxic doses and inconclusive results are not listed. No stated cut-off is given here; in the data, active means T/C of 150% or more; inactive means T/C below 125%.
Test system: L1210 leukemia ip in BDF1 mice, survival T/C
Assay: NCI In Vivo Anticancer Drug Screen. Data for tumor model L1210 Leukemia (intraperitoneal) in B6D2F1 (BDF1) mice
Conditions: endpoint: mean survival time, higher = longer survival
Method in brief: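 Survival endpoint. Drug-treated group vs vehicle group, expressed as T divided by C. Tumor passaged by transplantation.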

[1] = dose: 12.5 mg/kg/injection, schedule: Q01DX009 (ip), vehicle: saline
[2] = dose: 25.0 mg/kg/injection, schedule: Q01DX009 (ip), vehicle: saline
[3] = dose: 100.0 mg/kg/injection, schedule: Q01DX009 (ip), vehicle: saline
[4] = dose: 100.0 mg/kg/injection, schedule: Q04DX003 (ip), vehicle: saline
[5] = dose: 200.0 mg/kg/injection, schedule: Q01DX009 (ip), vehicle: saline
[6] = dose: 200.0 mg/kg/injection, schedule: Q04DX003 (ip), vehicle: saline
[7] = dose: 400.0 mg/kg/injection, schedule: Q04DX003 (ip), vehicle: saline
[8] = dose: 100.0 mg/kg/injection, schedule: Q01DX009 (ip), vehicle: Klucel (hydroxypropylcellulose) (HPC)
[9] = dose: 200.0 mg/kg/injection, schedule: Q01DX009 (ip), vehicle: Klucel (hydroxypropylcellulose) (HPC)
[10] = dose: 400.0 mg/kg/injection, schedule: Q01DX009 (ip), vehicle: Klucel (hydroxypropylcellulose) (HPC)
[11] = dose: 100.0 mg/kg/injection, schedule: Q01DX001 (ip), vehicle: saline
[12] = dose: 200.0 mg/kg/injection, schedule: Q01DX001 (ip), vehicle: saline
[13] = dose: 400.0 mg/kg/injection, schedule: Q01DX001 (ip), vehicle: saline
[14] = dose: 400.0 mg/kg/injection, schedule: Q01DX009 (ip), vehicle: saline

Measured: T/C

COc1ccc(N(C)C(C)=S)cc1
inactive: dose: 100.0 mg/kg/injection, schedule: Q04DX003 (ip), vehicle: gum acacia 96 % of control | dose: 200.0 mg/kg/injection, schedule: Q04DX003 (ip), vehicle: gum acacia 103 % of control

CC1=C(C)C(=O)c2c(OC(=O)c3ccccc3)ccc(OC(=O)c3ccccc3)c2C1=O
inactive: [1] 100 % of control | [2] 99 % of control | dose: 50.0 mg/kg/injection, schedule: Q01DX009 (ip), vehicle: saline 92 % of control | dose: 50.0 mg/kg/injection, schedule: Q04DX003 (ip), vehicle: saline 95 % of control | [3] 92 % of control | [4] 98 % of control and 91 % of control | [5] 87 % of control | [6] 90 % of control | [7] 92 % of control and 91 % of control

CC1(C)CCC(C)(C)c2cc(Br)ccc21
inactive: dose: 100.0 mg/kg/injection, schedule: Q01DX001 (ip), vehicle: carboxymethylcellulose (CMC) 103 % of control | dose: 200.0 mg/kg/injection, schedule: Q01DX001 (ip), vehicle: carboxymethylcellulose (CMC) 95 % of control | dose: 400.0 mg/kg/injection, schedule: Q01DX001 (ip), vehicle: carboxymethylcellulose (CMC) 95 % of control

O=[N+]([O-])c1ccc(C(O)Nc2nccs2)o1 (stereo unspecified)
inactive: dose: 25.0 mg/kg/injection, schedule: Q01DX009 (ip), vehicle: saline with Tween-80 96 % of control | dose: 50.0 mg/kg/injection, schedule: Q01DX009 (ip), vehicle: saline with Tween-80 117 % of control

BrC1CC/C=C\CCC1Br (stereo unspecified)
inactive: [8] 93 % of control | dose: 100.0 mg/kg/injection, schedule: Q04DX003 (ip), vehicle: Klucel (hydroxypropylcellulose) (HPC) 105 % of control | [9] 87 % of control | dose: 200.0 mg/kg/injection, schedule: Q04DX003 (ip), vehicle: Klucel (hydroxypropylcellulose) (HPC) 91 % of control | [10] 93 % of control | dose: 400.0 mg/kg/injection, schedule: Q04DX003 (ip), vehicle: Klucel (hydroxypropylcellulose) (HPC) 109 % of control

NC(=NCc1ccccc1)c1ncn(C2CCCC2)c1N
inactive: dose: 12.5 mg/kg/injection, schedule: Q01DX001 (ip), vehicle: Klucel (hydroxypropylcellulose) (HPC) 103 % of control | dose: 25.0 mg/kg/injection, schedule: Q01DX001 (ip), vehicle: Klucel (hydroxypropylcellulose) (HPC) 102 % of control | dose: 50.0 mg/kg/injection, schedule: Q01DX001 (ip), vehicle: Klucel (hydroxypropylcellulose) (HPC) 96 % of control

C/C(=C\COC1CCCCO1)CCC1OC1(C)C (stereo unspecified)
inactive: [11] 103 % of control | [3] 108 % of control | [12] 100 % of control | [5] 98 % of control | [13] 100 % of control | [14] 101 % of control

c1ccc(P(CCP(CCP(c2ccccc2)c2ccccc2)CCP(c2ccccc2)c2ccccc2)c2ccccc2)cc1
inactive: [8] 89 % of control | [9] 89 % of control | [10] 88 % of control

Cc1cccc(CNCC(=O)O)c1
inactive: [3] 105 % of control | [4] 92 % of control | [5] 92 % of control | [6] 98 % of control | [14] 105 % of control | [7] 98 % of control

CN(C)CCCN
inactive: [11] 97 % of control | [12] 108 % of control | [13] 95 % of control

COc1ccc(OC)c(/C=N\NC(=O)N/N=C/c2cc(OC)ccc2OC)c1
inactive: dose: 100.0 mg/kg/injection, schedule: Q04DX002 (ip), vehicle: saline with Tween-80 101 % of control | dose: 200.0 mg/kg/injection, schedule: Q04DX002 (ip), vehicle: saline with Tween-80 101 % of control | dose: 400.0 mg/kg/injection, schedule: Q04DX002 (ip), vehicle: saline with Tween-80 95 % of control

CN(C)S(=O)(=O)c1ccc(NC(=O)OC(C)(c2ccccc2)C2CCCCC2)cc1 (stereo unspecified)
inactive: [11] 100 % of control | [12] 100 % of control | [13] 97 % of control

O=C(Oc1ccccc1)C(Cl)(Cl)Cl
inactive: dose: 6.25 mg/kg/injection, schedule: Q01DX009 (ip), vehicle: saline 95 % of control | [1] 92 % of control | [2] 89 % of control | dose: 100.0 mg/kg/injection, schedule: Q01DX001 (ip), vehicle: acetone 98 % of control | dose: 100.0 mg/kg/injection, schedule: Q04DX003 (ip), vehicle: acetone 95 % of control | dose: 200.0 mg/kg/injection, schedule: Q01DX001 (ip), vehicle: acetone 90 % of control | dose: 200.0 mg/kg/injection, schedule: Q04DX003 (ip), vehicle: acetone 98 % of control | dose: 400.0 mg/kg/injection, schedule: Q01DX001 (ip), vehicle: acetone 100 % of control

CC(C)CCCCCCCCOC(=O)c1ccccc1C(=O)OCCCCCCCCC(C)C
inactive: [11] 98 % of control | [12] 103 % of control | [13] 103 % of control

CCc1ccccc1NC(=O)Nc1ccc(C(=O)O)c(O)c1
inactive: [8] 95 % of control | dose: 100.0 mg/kg/injection, schedule: Q04DX002 (ip), vehicle: Klucel (hydroxypropylcellulose) (HPC) 98 % of control | [9] 101 % of control | dose: 200.0 mg/kg/injection, schedule: Q04DX002 (ip), vehicle: Klucel (hydroxypropylcellulose) (HPC) 102 % of control | [10] 108 % of control | dose: 400.0 mg/kg/injection, schedule: Q04DX002 (ip), vehicle: Klucel (hydroxypropylcellulose) (HPC) 102 % of control

From PubChem BioAssay AID248 (DTP/NCI, 2004)
